Measurements taken from paper PMC7730235, “Discovery of a Novel Class of Covalent Dual Inhibitors Targeting the Protein Kinases BMX and BTK” (International Journal of Molecular Sciences, 2020).

Key:
[1] = molecular target: T1, Full length BMX (C-terminal NanoLuc fusion) (Homo sapiens, UniProt P51813); test: Cellular NanoBRET target engagement assay in HEK293T cells; assay type: cell-based; conditions: 0.5 µM Tracer K4, 2 h incubation
T1 construct: Full length BMX and BTK was cloned into pFC32K; expressed in transfected cells; host or cells: HEK293T
T1 sequence (P51813 1-675): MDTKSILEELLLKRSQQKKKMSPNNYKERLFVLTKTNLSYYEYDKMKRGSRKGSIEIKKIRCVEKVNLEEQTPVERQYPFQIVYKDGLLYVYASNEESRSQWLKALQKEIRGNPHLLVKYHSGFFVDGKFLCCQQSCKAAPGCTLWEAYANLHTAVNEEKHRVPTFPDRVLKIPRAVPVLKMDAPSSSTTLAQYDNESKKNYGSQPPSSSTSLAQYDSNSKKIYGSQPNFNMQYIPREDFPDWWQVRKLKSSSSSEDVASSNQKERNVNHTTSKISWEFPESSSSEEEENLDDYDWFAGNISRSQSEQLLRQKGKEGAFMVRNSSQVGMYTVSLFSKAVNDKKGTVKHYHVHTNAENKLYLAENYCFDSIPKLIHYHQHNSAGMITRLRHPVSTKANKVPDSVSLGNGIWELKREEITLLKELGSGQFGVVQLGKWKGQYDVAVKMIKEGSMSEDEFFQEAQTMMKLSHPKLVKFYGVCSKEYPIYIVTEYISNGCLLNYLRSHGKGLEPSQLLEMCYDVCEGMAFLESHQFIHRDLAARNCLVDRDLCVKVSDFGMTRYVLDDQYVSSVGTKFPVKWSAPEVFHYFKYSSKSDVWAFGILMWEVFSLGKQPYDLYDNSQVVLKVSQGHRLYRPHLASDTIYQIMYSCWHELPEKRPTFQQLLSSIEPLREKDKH
Method: (§1) Full length BMX and BTK was cloned into pFC32K (Promega, Madison, WI, USA) for expression of a C-terminal NanoLuc fusion. The plasmids were transfected into HEK293T cells cultured in DMEM (Gibco, Waltham, MA, USA) supplemented with 10% fetal bovine serum (Gibco, Waltham, MA, USA) and Penicillin/Streptamycin (Gibco, Waltham, MA, USA). NanoBRET assays were performed using the protocol published previously. Briefly, after transfection and 20 h incubation cells were harvested and subsequently resuspended in OptiMEM (Gibco, Waltham, MA, USA). Cells were aliquoted onto […] (Greiner, Kremsmünster, Austria), and inhibitors as well as 0.5 µM Tracer K4 (Promega) for BMX or 0.5 µM Tracer K5 (Promega, Madison, WI, USA) for BTK were added using an ECHO acoustic dispenser. The plates were incubated at 37 °C with 5% CO2 for 2 h prior to the addition of both NanoBRET NanoGlo substrate (Promega, Madison, WI, USA) and extracellular NanoLuc inhibitor. BRET luminescence (450 nm for donor emission and 610 nm for BRET signal) was measured using PHERAstar FSX plate reader (BMG Labtech, Ortenberg, Germany). Milli-BRET units (mBU) were calculated as a ratio between BRET signal and the overall measured luminescence. A dose–response fitting was applied and IC50 values were calculated using the Prism software. […] Experiments were performed as tripicates and repeated at least three times.

[2] = molecular target: T2, Full length BTK (C-terminal NanoLuc fusion) (Homo sapiens, UniProt Q06187); test: as above; assay type: cell-based; conditions: 0.5 µM Tracer K5, 2 h incubation
T2 construct: Full length BMX and BTK was cloned into pFC32K; expressed in transfected cells; host or cells: HEK293T
T2 sequence (Q06187 whole entry, the tested form may be a part): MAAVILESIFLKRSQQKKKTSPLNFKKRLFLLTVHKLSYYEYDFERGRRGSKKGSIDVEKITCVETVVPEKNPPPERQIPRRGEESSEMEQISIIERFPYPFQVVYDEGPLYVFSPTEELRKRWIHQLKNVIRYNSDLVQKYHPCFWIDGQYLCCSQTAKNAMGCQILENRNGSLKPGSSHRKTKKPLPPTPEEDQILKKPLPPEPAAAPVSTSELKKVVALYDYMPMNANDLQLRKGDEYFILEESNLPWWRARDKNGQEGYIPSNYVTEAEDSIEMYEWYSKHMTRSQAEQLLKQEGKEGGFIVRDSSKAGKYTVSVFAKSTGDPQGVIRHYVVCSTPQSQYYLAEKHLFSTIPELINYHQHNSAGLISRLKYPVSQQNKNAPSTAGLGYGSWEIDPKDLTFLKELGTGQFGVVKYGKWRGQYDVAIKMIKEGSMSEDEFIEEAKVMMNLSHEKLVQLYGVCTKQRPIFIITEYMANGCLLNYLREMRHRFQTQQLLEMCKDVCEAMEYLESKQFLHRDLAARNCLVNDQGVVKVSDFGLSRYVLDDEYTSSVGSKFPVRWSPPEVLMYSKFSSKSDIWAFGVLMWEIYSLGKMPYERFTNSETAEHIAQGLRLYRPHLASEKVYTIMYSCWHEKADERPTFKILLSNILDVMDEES
Method: as §1

[3] = molecular target: T3, kinase domain of BMX (Homo sapiens, UniProt P51813); test: Mass spectrometric investigation of covalent binding to BMX (ESI-TOF); conditions: 4 °C; for covalent labeling of BMX (in words): 1.5-fold molar excess, complete labeling refers to 30 min
T3 construct: The kinase domains of JAK3 and BMX at 2 μM
Method: The kinase domain of BMX was diluted to 0.05 mM with buffer containing 20 mM Tris pH 8.0, 200 mM NaCl, 0.5 mM TCEP (pH 7.0) and was subsequently mixed with 0.075 mM inhibitors (ratio of protein to inhibitor of 1:1.5). The mixture was incubated at 4°C. The samples were taken at different time points, the reaction stopped by diluting the sample with a 200-fold excess of 1% formic acid. The denatured protein and the adducts were assessed using electrospray time-of-flight (ESI-TOF) mass spectrometry.

[4] = molecular target: T4, TXK (Homo sapiens, UniProt P42681); test: Radiometric kinase assay (Reaction Biology HotSpot); assay type: biochemical; conditions: radiometric HotSpot, five-dose singlicate, [ATP] = 10 μM
T4 construct: purchased Reaction Biology Corporation
T4 sequence (P42681 1-527): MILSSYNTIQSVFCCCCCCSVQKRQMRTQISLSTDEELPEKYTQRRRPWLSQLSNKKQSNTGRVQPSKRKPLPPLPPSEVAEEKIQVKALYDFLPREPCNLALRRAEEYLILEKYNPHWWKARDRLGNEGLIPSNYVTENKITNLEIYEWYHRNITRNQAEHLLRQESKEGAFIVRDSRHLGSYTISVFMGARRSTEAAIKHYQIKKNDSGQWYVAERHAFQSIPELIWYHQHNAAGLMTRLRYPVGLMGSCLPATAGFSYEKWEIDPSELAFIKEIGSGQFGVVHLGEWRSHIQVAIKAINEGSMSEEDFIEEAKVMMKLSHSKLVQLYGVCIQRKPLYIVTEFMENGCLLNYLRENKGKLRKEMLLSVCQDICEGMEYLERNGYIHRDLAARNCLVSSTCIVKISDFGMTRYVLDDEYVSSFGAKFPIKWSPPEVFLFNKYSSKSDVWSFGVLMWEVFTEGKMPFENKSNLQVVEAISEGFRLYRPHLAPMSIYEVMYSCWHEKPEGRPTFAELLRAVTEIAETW
Method: (§2) If not mentioned differently, in vitro profiling of compounds was performed at Reaction Biology Corporation using the HotSpot™ assay platform.

[5] = molecular target: T5, BMX (Homo sapiens, UniProt P51813); test: as above; assay type: biochemical; conditions: radiometric HotSpot, five-dose singlicate, [ATP] = 10 μM
T5 construct: purchased Reaction Biology Corporation
T5 sequence (P51813 1-675): T1 sequence (P51813 1-675)
Method: as §2

[6] = molecular target: T6, kinase domain of JAK3 (Homo sapiens, UniProt P52333); test: Thermal shift (ΔTm) assay; assay type: binding; conditions: 2 μM kinase domain, 10 μM inhibitor; mean ± SD of at least three measurements
T6 construct: The kinase domains of JAK3 and BMX at 2 μM; made in house
Method: (§3) The kinase domains of JAK3 and BMX at 2 μM were mixed with the inhibitors at 10 μM, and subsequently SyPRO orange dye (Invitrogen Carlsbad, CA, USA) was added. The thermal shift assay and data evaluation were performed as described previously using a Real-Time PCR Mx3005p machine (Stratagene, La Jolla, CA, USA).

[7] = molecular target: T3, kinase domain of BMX; test: Thermal shift (ΔTm) assay; assay type: binding; conditions: 2 μM kinase domain, 10 μM inhibitor; mean ± SD of at least three measurements
Method: as §3

[8] = molecular target: T7, JAK3 (Homo sapiens, UniProt P52333); test: Radiometric kinase assay (Reaction Biology HotSpot); assay type: biochemical; conditions: radiometric HotSpot, five-dose singlicate, [ATP] = 10 μM
T7 construct: purchased Reaction Biology Corporation
T7 sequence (P52333 1-1124): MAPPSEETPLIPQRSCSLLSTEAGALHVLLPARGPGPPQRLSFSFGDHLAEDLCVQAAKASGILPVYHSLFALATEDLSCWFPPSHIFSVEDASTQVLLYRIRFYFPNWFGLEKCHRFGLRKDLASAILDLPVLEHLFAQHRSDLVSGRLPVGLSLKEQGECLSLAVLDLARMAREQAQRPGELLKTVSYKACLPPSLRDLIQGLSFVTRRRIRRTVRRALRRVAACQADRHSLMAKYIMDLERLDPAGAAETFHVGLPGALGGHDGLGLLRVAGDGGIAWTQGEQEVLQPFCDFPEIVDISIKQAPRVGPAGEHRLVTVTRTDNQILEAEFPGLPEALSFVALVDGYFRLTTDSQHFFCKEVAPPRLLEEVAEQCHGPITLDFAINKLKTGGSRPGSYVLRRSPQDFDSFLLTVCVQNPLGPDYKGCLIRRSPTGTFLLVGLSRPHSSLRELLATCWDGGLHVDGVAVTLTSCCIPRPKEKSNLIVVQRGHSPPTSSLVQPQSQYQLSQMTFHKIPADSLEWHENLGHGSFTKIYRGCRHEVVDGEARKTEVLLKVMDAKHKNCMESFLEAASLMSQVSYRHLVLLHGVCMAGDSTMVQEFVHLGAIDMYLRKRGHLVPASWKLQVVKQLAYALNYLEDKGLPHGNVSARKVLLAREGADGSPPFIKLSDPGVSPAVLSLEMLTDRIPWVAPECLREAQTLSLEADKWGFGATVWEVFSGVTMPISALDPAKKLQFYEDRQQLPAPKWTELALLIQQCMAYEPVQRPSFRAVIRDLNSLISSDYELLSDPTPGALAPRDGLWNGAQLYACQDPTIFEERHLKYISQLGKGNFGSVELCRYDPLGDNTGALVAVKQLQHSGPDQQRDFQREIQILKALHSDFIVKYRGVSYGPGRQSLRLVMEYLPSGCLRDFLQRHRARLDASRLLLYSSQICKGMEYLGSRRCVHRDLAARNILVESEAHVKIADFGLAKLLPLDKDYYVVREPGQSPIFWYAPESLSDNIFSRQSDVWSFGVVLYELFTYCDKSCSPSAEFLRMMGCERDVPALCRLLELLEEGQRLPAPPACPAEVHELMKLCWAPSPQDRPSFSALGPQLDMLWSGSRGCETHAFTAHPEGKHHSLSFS
Method: as §2

[9] = 1.5-fold molar excess of inhibitor, 30 min
[10] = 1.5-fold molar excess of inhibitor, 60 min
[11] = 1.5-fold molar excess of inhibitor, 120 min
[12] = 1.5-fold molar excess of inhibitor, 240 min

**Q.** What does the source list for CCC(=O)Nc1cccc(-c2c[nH]c3ncc(C(=O)NC4CCCC4)cc23)c1 [Compound 11b, N-cyclopentyl-3-(3-propionamidophenyl)-1H-pyrrolo[2,3-b]pyridine-5-carboxamide]?
**A.** IC50 [1]: > 10 µM; IC50 [2]: 3.71 ± 1.2 µM; native (unmodified) BMX fraction, 30 min [3, 9]: 100%; native (unmodified) BMX fraction, 60 min [3, 10]: 100%; native (unmodified) BMX fraction, 120 min [3, 11]: 100%; native (unmodified) BMX fraction, 240 min [3, 12]: 100%; covalent labeling of BMX (in words) [3]: no modification was detectable; IC50 [4]: > 10 µM; IC50 [5]: > 10 µM

**Q.** For C=CC(=O)Nc1cccc(-c2c[nH]c3ncc(NC(=O)CC4CCCC4)cc23)c1 [Compound 12g, N-(3-(5-(2-cyclopentylacetamido)-1H-pyrrolo[2,3-b]pyridin-3-yl)phenyl)acrylamide], which IC50 [1] is on record?
**A.** The IC50 was 0.003 ± 0.001 µM.

**Q.** And the IC50 [2]?
**A.** The IC50 was 0.013 ± 0.002 µM.

**Q.** And the ΔTm at 10 µM [6]?
**A.** The ΔTm at 10 µM was 11.9 ± 0.23 °C.

**Q.** What about the ΔTm at 10 µM [7] of the same molecule?
**A.** Its ΔTm at 10 µM is 11.88 ± 0.07 °C.

**Q.** And the “BMX covalent adduct fraction, 30 min” value [3, 9]?
**A.** Its value is 100%.

**Q.** What about the “BMX covalent adduct fraction, 60 min” value [3, 10] of the same molecule?
**A.** Its value is 100%.

**Q.** And the “BMX covalent adduct fraction, 120 min” value [3, 11]?
**A.** Its value is 99%.

**Q.** And the “native (unmodified) BMX fraction, 120 min” value [3, 11]?
**A.** The value was 1%.

**Q.** And the “BMX covalent adduct fraction, 240 min” value [3, 12]?
**A.** Its value is 100%.

**Q.** And the “covalent labeling of BMX (in words)” value [3]?
**A.** Its value is “complete labeling”.

**Q.** What about the IC50 [8] of the same molecule?
**A.** The IC50 was > 10 µM.

**Q.** What about the IC50 [5] of the same molecule?
**A.** Its IC50 is 0.006 µM.
